In patent US20060052432A1, “Pharmaceutical compositions with improved dissolution” (priority 2002, published 2006):
Counter-ions that a name gives are not always drawn.

Assays:
[1] = Administration of celecoxib compositions to dogs (plasma pharmacokinetics); details: single oral dose, 5 mpk, male dogs
[2] = Pharmacokinetic studies in rats, 5 mg/kg oral doses; type: in vivo, male Sprague-Dawley rats; details: gelatin capsule, sodium salt blended 1:4 with polyvinylpyrrolidone, compared with CELEBREX
Experimental: The sodium salt form (from Example 6) was compared with CELEBREX powder in terms of absorption in rats (FIGS. 4A and 4B).
Solids were placed in size 9 gelatin capsules (Torpac) and dosed via gavage needle, followed by oral gavage of 1 mL water. CELEBREX granulation was transferred from commercial 200 mg capsules. The sodium salt was blended with polyvinylpyrrolidone (e.g. PovidoneK30) in a 1:4 mixture. The plots are averages of plasma levels at each of the time points from plasma of 5 rats.

pKa = type: physicochemical
[3] = commercially available neutral form; cited from earlier work
Solubility in water = type: physicochemical
[4] = Solubility of celecoxib sodium salt in the presence of polyvinylpyrrolidone; type: physicochemical; details: added to aqueous PVP, or water added to dry blend with PVP
[5] = according to WO 01/78724; cited from earlier work
[6] = In vitro dissolution studies in simulated gastric fluid; type: physicochemical
Experimental: 1. […] The celecoxib salt was ground using mortar and pestle until fine powder was formed. […] 2. Formulation Preparation • a. Fresh PLURONIC excipient was dispensed into a mortar. If initially a solid at room temperature, the PLURONIC was ground until a smooth powder was formed. • b. If HPC was to be added, it was dispensed after the PLURONIC excipient. […] 3. Dissolution Assay • a. A water bath was set up at 37 degrees C. • b. Simulated gastric fluid in the fasted state (SGF) was prepared at pH 1.7 and diluted five times with deionized water. […] The simulated gastric fluid was diluted five times to simulate the effect of drinking a glass of water with the medication. The SGF was pre-heated to 37 degrees C. • c. The formulation was placed in a 20 mL scintillation vial. • d. A 10 mm x 3 mm stir bar was added. • e. Diluted SGF was added to the formulation. […] The vial was placed in the water bath and allowed to stir. • g. […] The first ⅔ of filtrate was discarded as waste and the last ⅓ was collected into an eppendorf tube. 0.1 mL of the collected filtrate was immediately transferred to an autosampler vial and diluted ten times with 0.9 mL of methanol. The autosampler vials were crimp sealed and submitted for content analysis using high performance liquid chromatography with ultraviolet detection. In Vitro Dissolution Studies of PLURONIC Excipients - Results: […]

SMILES: Cc1ccc(-c2cc(C(F)(F)F)nn2-c2ccc(S(N)(=O)=O)cc2)cc1 [celecoxib sodium salt, sodium salt of 4-[5-(4-methylphenyl)-3-(trifluoromethyl)-1H-pyrazol-1-yl]benzenesulfonamide]
- maximum blood serum concentration reached faster than for celecoxib [1]: 40%
- peak level of the drug in plasma [2]: faster peak level of the drug in plasma

SMILES: Cc1onc(-c2ccccc2)c1-c1ccc(S(N)(=O)=O)cc1 [Valdecoxib, 4-(5-methyl-3-phenyl-4-isoxazolyl)benzene sulfonamide]
- pKa (pKa): ~11
- solubility in water (in words) [3]: essentially insoluble in water

SMILES: Cc1ccc(-c2cc(C(F)(F)F)nn2-c2ccc(S(N)(=O)=O)cc2)cc1 [celecoxib, 4-[5-(4-methylphenyl)-3-(trifluoromethyl)-1H-pyrazol-1-yl]benzenesulfonamide]
- solubility in water (in words) [3]: essentially insoluble in water
- ability to be maintained as a supersaturated solution (Solubility in water): cannot be maintained as a supersaturated solution for any appreciable time
- solubility (Solubility in water): < 1 µg/mL
- dissolution in aqueous polyvinylpyrrolidone [4]: did not dissolve
- solubility in Transcutol P [5]: 350 mg/g

SMILES: CCOCCOCCO [Transcutol P]
- effect on dissolution of celecoxib free acid [6]: does not enhance dissolution of the free acid
